Data published in article PMC9106635, “Stimulation of the atypical chemokine receptor 3 (ACKR3) by a small-molecule agonist attenuates fibrosis in a preclinical liver but not lung injury model” (Cellular and Molecular Life Sciences: CMLS, 2022).

What was measured:
[1] = test system: fibrosis-related genes (liver mRNA); assay: nCounter analysis of 52 fibrosis-related genes in liver RNA; format: in vivo, mouse
Experimental: Total RNA was prepared from snap-frozen liver tissue (the lateral and medial right lobes and the caudate lobe; Supplementary Figure S1a) or lung tissue (cranial right lobe; Supplementary Figure S1b) after homogenization on ice in TRIZol. For quantitative qRT-PCR, cDNA was made from 0.5 μg of RNA using the GoScript reverse transcription system (Promega) according to the manufacturer's protocol. QRT-PCR was performed (for 40 cycles) with the Quantstudio3 Applied Biosystems (ABI) system using Sybr green (ABI) followed by melting curve analysis. Expression was calculated using the delta threshold cycle (ΔCT) method with Gapdh as reference gene (previously validated as stable house-keeping gene in the CCl4 model and in the bleomycin model, current study, not shown). Forward (F) and reverse (R) primer sequences were (5'-3'): […]; Col1a1: [NT]; Ackr3: [NT]; Cxcr4: [NT]; Golm1: [NT]; Lgals3: [NT]; Unc93b1: [NT]; Slc15a3: [NT]; Sec24d: [NT]; Cxcl10: [NT]; and […] Data are expressed as mean ± sem. For NanoString nCounter (NanoString, USA) analysis on liver RNA, a custom-designed panel of 52 fibrosis-related probes was used (the Nanostring probe list is shown in Supplementary Table 1). 100-500 ng of total RNA was hybridized according to the manufacturer's instructions. Data were normalized by scaling to a panel of four housekeeping genes (i.e., Hprt1, Actb, Ldh, Tbp; probes are listed in Supplementary Table 1) with a coefficient of variation of < 5% between conditions used for comparison. The scaled counts were base log2-transformed and data were expressed as fold-change versus the reference condition (CCl4 + 23% HPBCD). […] The resulting P-values were corrected for multiple testing with Benjamini-Hochberg to control the false discovery rate. P < 0.05 was considered as significant.

[2] = Mouse plasma pharmacokinetics after subcutaneous administration; format: in vivo; conditions: 30 mg/kg subcutaneous
Experimental: Pharmacokinetic analysis of plasma samples was performed at GVK BIO Sciences Pvt. Ltd. (Hyderabad, India). The pharmacokinetic properties of compound 18a were determined by subcutaneous administration in male C57BL/6 mice. A 30 mg/kg dose was formulated as a solution in 23% hydroxypropyl-beta-cyclodextrin (HPBCD; w/v) in water. The dose volume was 3 mL/kg. Serial blood samples were collected at 0.5, 1, 2, 4, 6, 8 and 24 h post dosing (n = 3). Plasma concentration of compound 18a was determined by a LC–MS/MS method. Chromatography was performed on a reverse phase column (Kinetex EVO, C18, 50 × 4.6 mm, 5 µ) at a flow rate of 1 mL/minute, using a gradient-elution method. Mobile Phase A was a 10 mM ammonium acetate solution with 0.1% formic acid in water, whereas mobile phase B was a mixture of acetonitrile and methanol (50:50). The gradient started at 5% B ramped up to 95% B over 1 min, held at 95% B for 1.2 min, and then ramped down to 5% B over 0.1 min, and held at 5% B for 1.2 min. The mass spectrometer was operated in positive-ionization mode and Telmisartan was used as internal standard. Analyst software was used for the data acquisition and chromatographic-peak integration. The Cmax, Tmax, AUC and half-life value (t1/2) were determined using standard non-compartmental pharmacokinetic methods. The concentration of compound 18a in liver and lung tissue was determined by LC–MS/MS at Eurofins (Vergeze, France). Tissues harvested at the endpoint of the efficacy study (day 28 for liver, day 21 for lung), 2 h post the last compound 18a dose, were processed. Around 250 mg of the lateral right liver lobe (n = 3) and ~ 120 mg of the caudal right lung lobe (n = 4) were homogenized in water and precipitated in acetonitrile containing Irbesartan as internal standard. Further analysis was performed via a similar method as described above. Data are expressed as mean ± sem.
Pharmacokinetic parameters were calculated from plasma concentration-time data in male C57BL/6 mice (n=3). Cmax is reported as the mean ± SD.

[3] = liver d28, CCl4 + compound 18a vs. CCl4 + 23% HPBCD
[4] = mouse, sc, male C57BL/6 mice, plasma

CCc1ccn2ccnc2c1N1CCCN(C(CC(N)=O)C2CCN(C(=O)C3CC4CCC3O4)CC2)CC1 (stereo not drawn) [compound 18a]
number of the 52 fibrosis-related genes with significantly affected expression ([1]; CCl4-challenged livers, day 28): 8
Fold change Adamts2 mRNA [1, 3]: 1.15
Fold change Anxa3 mRNA [1, 3]: 0.85
Fold change Arhgap25 mRNA [1, 3]: 0.87
Fold change Arl11 mRNA [1, 3]: 1.09
Fold change Arpc1b mRNA [1, 3]: 1.04
Fold change Axl mRNA [1, 3]: 0.96
Fold change C1qb mRNA [1, 3]: 0.92
Fold change Capg mRNA [1, 3]: 0.85
Fold change Ccr2 mRNA [1, 3]: 0.96
Fold change Ccr5 mRNA [1, 3]: 0.86
Fold change Ccr9 mRNA [1, 3]: 1.04
Fold change Cd68 mRNA [1, 3]: 0.90
Fold change Cd86 mRNA [1, 3]: 0.88
Fold change Clec4n mRNA [1, 3]: 0.77
Fold change Clec7a mRNA [1, 3]: 1.13
Fold change Col3a1 mRNA [1, 3]: 1.40
Fold change Col4a2 mRNA [1, 3]: 0.92
Fold change Col5a1 mRNA [1, 3]: 0.84
Fold change Cxcl10 mRNA [1, 3]: 0.74
Fold change Cxcl16 mRNA [1, 3]: 1.03
Fold change Eln mRNA [1, 3]: 1.25
Fold change Enc1 mRNA [1, 3]: 1.09
Fold change Fxyd5 mRNA [1, 3]: 0.96
Fold change Gdf15 mRNA [1, 3]: 1.12
Fold change Golm1 mRNA [1, 3]: 1.46
Fold change Il1rn mRNA [1, 3]: 0.76
Fold change Laptm5 mRNA [1, 3]: 0.90
Fold change Lgals3 mRNA [1, 3]: 0.58
Fold change Lilrb4 mRNA [1, 3]: 0.94
Fold change Lox mRNA [1, 3]: 1.24
Fold change Loxl2 mRNA [1, 3]: 1.01
Fold change Ly86 mRNA [1, 3]: 1.15
Fold change Mmp9 mRNA [1, 3]: 1.13
Fold change Ms4a6a mRNA [1, 3]: 1.20
Fold change Myo1f mRNA [1, 3]: 0.90
Fold change Nckap1l mRNA [1, 3]: 0.97
Fold change Pld4 mRNA [1, 3]: 0.93
Fold change Plod2 mRNA [1, 3]: 1.13
Fold change Rassf4 mRNA [1, 3]: 0.93
Fold change Sdcbp mRNA [1, 3]: 1.08
Fold change Sec24d mRNA [1, 3]: 1.22
Fold change Serpine1 mRNA [1, 3]: 0.22
Fold change Sla mRNA [1, 3]: 1.00
Fold change Slc11a1 mRNA [1, 3]: 0.88
Fold change Slc15a3 mRNA [1, 3]: 0.81
Fold change Tgfb1 mRNA [1, 3]: 0.90
Fold change Thbs2 mRNA [1, 3]: 1.03
Fold change Timp1 mRNA [1, 3]: 1.09
Fold change Tnc mRNA [1, 3]: 0.84
Fold change Trem2 mRNA [1, 3]: 1.44
Fold change Unc93b1 mRNA [1, 3]: 0.81
time after administration for which plasma levels exceeded the target value (5.2 ng/mL) ([2]; below target at 24 h): up to 8 h
AUC [2, 4]: 6700 ng·h/mL
Tmax [2, 4]: 0.25 h
half-life [2, 4]: 5.2 h
Cmax ([2]; mouse, sc, male C57BL/6 mice, plasma, mean ± SD, n=3): 6120 ng/mL
